ChEMBL document CHEMBL3091372, “Design, synthesis, and biological testing of novel naphthoquinones as substrate-based inhibitors of the quinol/fumarate reductase from Wolinella succinogenes” (J Med Chem, 2013)
Active and inactive are the calls of the source. The rule behind the calls is not given here.

Tests used:
Wolinella succinogenes [1] = assay: Inhibition of Wolinella succinogenes succinate/quinone reductase at 20 uM
Wolinella succinogenes [2] = assay: Inhibition of Wolinella succinogenes quinol/fumarate reductase at 20 uM
[3] = biological target: T1, NAD(P)H dehydrogenase [quinone] 1 (Rattus norvegicus) (UniProt P05982); assay: Inhibition of rat DT-diaphorase assessed as reduction of cytochrome c at 2 uM
T1 sequence (whole entry): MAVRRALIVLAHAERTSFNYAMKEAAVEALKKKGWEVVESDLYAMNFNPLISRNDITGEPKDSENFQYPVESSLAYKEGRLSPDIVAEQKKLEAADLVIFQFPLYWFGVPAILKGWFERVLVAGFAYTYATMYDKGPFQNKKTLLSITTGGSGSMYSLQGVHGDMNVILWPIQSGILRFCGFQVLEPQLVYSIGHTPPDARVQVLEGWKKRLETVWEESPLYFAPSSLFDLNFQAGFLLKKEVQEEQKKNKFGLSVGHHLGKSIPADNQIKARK

[4] = Inhibition of Wolinella succinogenes quinol/fumarate reductase
[5] = Inhibition of Wolinella succinogenes succinate/quinone reductase

| Structure (SMILES) | inhibition call (active/not active) (Wolinella succinogenes [1]) | inhibition activity (active/not active) (Wolinella succinogenes [2]) | inhibition [3] | IC50 [4] [nM] | IC50 [5] [nM] |
| --- | --- | --- | --- | --- | --- |
| CCCCCCCCCCC1=C(OC)C(=O)c2ccccc2C1=O | Active | Active |  |  |  |
| O=C1C=C(O)C(=O)c2ccccc21 | Active | Active |  |  |  |
| CCCCCCCCCCCCCCC1=C(O)C(=O)c2ccccc2C1=O | Active | Active |  |  |  |
| CCCCCCC1=C(OC)C(=O)c2ccccc2C1=O | Active | Active |  |  |  |
| CCCCCCCCCCC1=C(Br)C(=O)c2ccccc2C1=O | Active | Active |  |  |  |
| O=C1C(O)=C(CCCC2CCCCC2)C(=O)c2ccccc21 | Active | Active |  |  |  |
| O=C1C(O)=C(CCCc2ccccc2)C(=O)c2ccccc21 | Active | Active |  |  |  |
| O=C1C(O)=C(CCCCCCCCCCBr)C(=O)c2ccccc21 | inactive | inactive |  |  |  |
| CCC1=C(O)C(=O)c2ccccc2C1=O | Active | Active |  |  |  |
| CCCCCCC1=C(O)C(=O)c2ccccc2C1=O | Active | Active |  |  |  |
| CCC1=C(Br)C(=O)c2ccccc2C1=O | Active | Active | inactive | 612 | 604 |
| CC1=C(O)C(=O)c2ccccc2C1=O | Active | Active |  |  |  |
| CC1=C(Br)C(=O)c2ccccc2C1=O | Active | Active | inactive | 61 | 1090 |
| CCCCCCCCCOC1=CC(=O)C(=O)c2ccccc21 | inactive | inactive |  |  |  |
| CCC1=C(OC)C(=O)c2ccccc2C1=O | Active | Active |  |  |  |
| CCCCCCCCCCC1=C(O)C(=O)c2ccccc2C1=O | Active | Active |  |  |  |
| CC(C)(O)CCC1=C(O)C(=O)c2ccccc2C1=O | inactive | inactive |  |  |  |
| O=C1C(O)=C(CCCCC2CCCCC2)C(=O)c2ccccc21 | Active | Active |  |  |  |
| CCCCCCC1=C(Br)C(=O)c2ccccc2C1=O | Active | Active |  |  |  |
| CCCCCCCCCOC1=CC(=O)c2ccccc2C1=O | Active | Active |  |  |  |
| CC(C)(C)CC1=C(O)C(=O)c2ccccc2C1=O | Active | Active |  |  |  |
